Format in all cases: in vivo
The test system of series [1] is green rice leafhopper (Nephotettix cinticeps). Nature of the series: Nephotettix test. The conditions noted are these: after 6 days; active compound concentration 0.1%; rice seedlings dipped. On the procedure: (§1) Solvent: 7 parts by weight of dimethylformamide
(§2) Emulsifier: 1 part by weight of alkylaryl polyglycol ether
(§3) To produce a suitable preparation of active compound, 1 part by weight of active compound is mixed with the stated amount of solvent and the stated amount of emulsifier, and the concentrate is diluted with water to the desired concentration.
Rice seedlings (Oryza sativa) are treated by being dipped into the preparation of active compound of the desired concentration and are infested with the green rice leafhopper (Nephotettix cinticeps) while the leaves are still moist.
After the specified period of time, the destruction in % is determined. 100% means that all the leafhoppers have been killed; 0% means that none of the leafhoppers have been killed.

Another series has as its system Abutilon. Nature of the series: Pre-emergence test, Abutilon. The conditions noted are these: application rate 250 g/ha, after three weeks. On the procedure: (§4) Pre-emergence Test Solvent: 3 parts by weight of acetone Emulsifier: 1 part by weight of alkylaryl polyglycol ether To produce a suitable preparation of active compound, 1 part by weight of active compound is mixed with the stated amount of solvent, the stated amount of emulsifier is added and the concentrate is diluted with water to the desired concentration. Seeds of the test plants are sown in normal soil and, after 24 hours, watered with the preparation of the active compound. It is expedient to keep constant the amount of water per unit area. The concentration of the active compound in the preparation is of no importance, only the amount of active compound applied per unit area being decisive. After three weeks, the degree of damage to the plants is rated in % damage in comparison to the development of the untreated control. The figures denote: 0%=no action (like untreated control) 100%=total destruction

The next series relates to maize. Briefly: Pre-emergence test, tolerance by maize. The conditions noted are these: application rate 250 g/ha. On the procedure:
as §4

In series [2] the test system is greenhouse red spider mite (Tetranychus urticae). Briefly: Tetranychus test (OP-resistant). The conditions noted are these: after 13 days; active compound concentration 0.1%; infested bean shoots dipped. On the procedure:
Tetranychus Test (OP-resistant)
as §1, §2, §3
Bean shoots (Phaseolus vulgaris) which are severely infested with the greenhouse red spider mite (Tetranychus urticae) are dipped into a preparation of the active compound of the desired concentration.
After the specified period of time, the destruction in % is determined. 100% means that all the spider mites have been killed; 0% means that none of the spider mites have been killed.

Series [3] relates to Alopecurus. Nature of the series: Pre-emergence test, Alopecurus. The conditions noted are these: application rate 250 g/ha, after three weeks. The method, then: as §4
The test system of a further series is Digitaria. Nature of the series: Pre-emergence test, Digitaria. The conditions noted are these: application rate 250 g/ha, after three weeks. The method, then:
as §4

Another series concerns Echinochloa. Briefly: Pre-emergence test, Echinochloa. The conditions noted are these: application rate 250 g/ha, after three weeks. On the procedure:
as §4

Another series deals with Chenopodium. Nature of the series: Pre-emergence test, Chenopodium. The conditions noted are these: application rate 250 g/ha, after three weeks. On the procedure: as §4
Another series concerns Veronica. Nature of the series: Pre-emergence test, Veronica. The conditions noted are these: application rate 250 g/ha, after three weeks. The method, then: as §4
The subject of series [4] is soya beans. Nature of the series: Pre-emergence test, tolerance by soya beans. The conditions noted are these: application rate 250 g/ha. The method, then: as §4
Another series concerns Alopecurus myosuroides. Nature of the series: Pre-emergence test, Alopecurus myosuroides. The conditions noted are these: application rate 4000 g/ha, after three weeks. On the procedure:
as §4

Another series has as its system Beta vulgaris. Briefly: Pre-emergence test, tolerance by Beta vulgaris. The conditions noted are these: application rate 4000 g/ha. The method, then:
as §4

Series [5] concerns Boophilis Microplus Resistant/SP-resistant Parkhurst Strain. Nature of the series: Test with Boophilis Microplus resistant/SP-resistant Parkhurst strain. The conditions noted are these: 20 μg/animal injected into the abdomen; adult females. On the procedure: Test with Boophilis Microplus Resistant/SP-resistant Parkhurst Strain
Test animals: adult females which have sucked themselves full
Solvent: dimethyl sulphoxide
20 mg of active substance are dissolved in 1 ml of dimethyl sulphoxide, and lesser concentrations are prepared by dilution with the same solvent.
The test is carried out in 5 replications. 1 μl of the solutions is injected into the abdomen, and the animals are transferred into dishes and kept in a controlled-environment cabinet. The activity is determined via the inhibition of oviposition. 100% means that no tick has deposited eggs.

The subject of series [6] is Alopecurus. Nature of the series: Post-emergence test, Alopecurus. The conditions noted are these: application rate 125 g/ha, after three weeks. On the procedure: (§5) Post-emergence Test Solvent: 5 parts by weight of acetone Emulsifier: 1 part by weight of alkylaryl polyglycol ether To produce a suitable preparation of active compound, 1 part by weight of active compound is mixed with the stated amount of solvent, the stated amount of emulsifier is added and the concentrate is diluted with water to the desired concentration. Test plants which have a height of 5-15 cm are sprayed with the preparation of the active compound in such a way as to apply the particular amounts of active compound desired per unit area. The concentration of the spray liquor is so chosen that the particular amounts of active compound desired are applied in 2000 l of water/ha. After three weeks, the degree of damage to the plants is. rated in % damage in comparison to the development of the untreated control. The figures denote: 0%=no action (like untreated control) 100%=total destruction

The test system of a further series is Avena fatua. Briefly: Post-emergence test, Avena fatua. The conditions noted are these: application rate 125 g/ha, after three weeks. The method, then:
as §5

The next series has as its system Setaria. Briefly: Post-emergence test, Setaria. The conditions noted are these: application rate 125 g/ha, after three weeks. The method, then:
as §5

The test system of series [7] is soya beans. Nature of the series: Post-emergence test, tolerance by soya beans. The conditions noted are these: application rate 125 g/ha. The method, then:
as §5

The values below come from patent US6746990B2, “2-phenyl-substituted heterocyclic 1,3-ketoenols as herbicides and pesticides” (Bayer Aktiengesellschaft, priority 1995, dated 2004).

As for `Cc1cc(C#N)cc(C)c1C1=C(O)C2(CCC(C)CC2)NC1=O` (single isomer, unassigned) [Example I-1-a-6], the destruction in % in series [1] was 100%. The “damage to Abutilon” value in the series on Abutilon was determined as 80%. For the same compound, the tolerance by maize entry in the series with maize is reported as “good tolerance”. Besides, the “activity (destruction in %)” value in series [2] was 100%.

As for `Cc1cc(C)c(C2=C(O)C3(CCC(C)CC3)NC2=O)c(C#N)c1` (single isomer, unassigned) [Example I-1-a-4], the destruction in % in series [1] is 100%. Also, the “damage to Alopecurus” value in the series with Alopecurus [3] came out at 100%. In addition, the “damage to Digitaria” value in the series with Digitaria amounted to 100%. Moreover, the “damage to Echinochloa” value in the series on Echinochloa is recorded as 100%. The “damage to Chenopodium” value in the series on Chenopodium is on record as 100%. The “damage to Veronica” value with Veronica was determined as 100%. Also, the “tolerance by soya beans” value in the series on soya beans [4] is listed as “good tolerance”. Also, the “activity (destruction in %)” value in [2] was determined as 100%.

On to `CC1CCC2(CC1)NC(=O)C(c1ccc(S(C)(=O)=O)cc1Cl)=C2O` (stereo not drawn) [Example I-1-a-1], for which, in series [1], the destruction in % is listed as 100%. Also, the “damage to Alopecurus myosuroides” value in the series with Alopecurus myosuroides turned out to be 80%. Besides, the “tolerance by Beta vulgaris” value in the series on Beta vulgaris was “good tolerance”. The “activity (inhibition of oviposition)” value in [5] was 100%.

As to `CCOC(=O)OC1=C(c2ccc(S(C)(=O)=O)cc2Cl)C(=O)NC12CCC(C)CC2` (stereo not drawn) [Example I-1-c-1], the “damage to Alopecurus myosuroides” value with Alopecurus myosuroides was 80%. The “tolerance by Beta vulgaris” value in the series with Beta vulgaris is on record as “good tolerance”.

Regarding `CCc1cc(C#N)cc(C)c1C1=C(O)C2(CCC(C)CC2)NC1=O` (single isomer, unassigned) [Example I-1-a-5], the destruction in % in [1] came out at 100%. The “activity (destruction in %)” value in [2] stood at 100%. Also, the “damage to Alopecurus” value in the series on Alopecurus [6] is recorded as “at least 80%”. The “damage to Avena fatua” value in the series on Avena fatua is on record as “at least 80%”. Also, the “damage to Setaria” value in the series on Setaria is on record as “at least 80%”. Besides, the “tolerance by soya beans” value in the series on soya beans [7] is “good tolerance”.
